Test results as given in patent US20230181519A1, “Compositions And Methods For Treating Nicotine-Related Disorders And Symptoms Using Dihydromyricetin” (priority 2021, published 2023).
Entries after “also recorded” stand apart in the source; their conditions may differ.

Columns and labels:
[1] = biological target: T1, α4β2-nAChRs (Homo sapiens, UniProt P17787+P43681); experiment: ACh-induced whole-cell currents of transfected α4β2-nAChRs in SH-EP1 cells; format: cell-based; settings: DHM co-applied at different concentrations, SH-EP1 cells (FIG. 1)
T1 construct: expressed in transfected cells; host or cells: human SH-EP1 cells
T1 sequence (P43681 29-627 limits assumed): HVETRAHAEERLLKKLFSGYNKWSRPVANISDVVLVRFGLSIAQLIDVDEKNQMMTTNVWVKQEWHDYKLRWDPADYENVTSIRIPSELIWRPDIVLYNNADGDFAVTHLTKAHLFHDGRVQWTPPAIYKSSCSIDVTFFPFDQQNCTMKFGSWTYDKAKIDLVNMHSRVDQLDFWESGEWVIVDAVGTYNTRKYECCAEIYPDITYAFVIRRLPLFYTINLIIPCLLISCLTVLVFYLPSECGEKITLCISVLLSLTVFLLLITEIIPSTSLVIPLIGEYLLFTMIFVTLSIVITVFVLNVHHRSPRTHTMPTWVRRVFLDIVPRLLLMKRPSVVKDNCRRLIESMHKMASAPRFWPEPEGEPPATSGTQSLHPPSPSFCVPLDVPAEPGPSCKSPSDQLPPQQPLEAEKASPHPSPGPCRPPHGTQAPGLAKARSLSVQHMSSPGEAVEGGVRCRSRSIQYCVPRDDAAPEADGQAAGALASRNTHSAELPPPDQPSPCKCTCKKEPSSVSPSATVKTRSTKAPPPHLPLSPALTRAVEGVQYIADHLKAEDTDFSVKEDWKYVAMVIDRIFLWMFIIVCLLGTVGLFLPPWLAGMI
T1 sequence (P17787 26-502): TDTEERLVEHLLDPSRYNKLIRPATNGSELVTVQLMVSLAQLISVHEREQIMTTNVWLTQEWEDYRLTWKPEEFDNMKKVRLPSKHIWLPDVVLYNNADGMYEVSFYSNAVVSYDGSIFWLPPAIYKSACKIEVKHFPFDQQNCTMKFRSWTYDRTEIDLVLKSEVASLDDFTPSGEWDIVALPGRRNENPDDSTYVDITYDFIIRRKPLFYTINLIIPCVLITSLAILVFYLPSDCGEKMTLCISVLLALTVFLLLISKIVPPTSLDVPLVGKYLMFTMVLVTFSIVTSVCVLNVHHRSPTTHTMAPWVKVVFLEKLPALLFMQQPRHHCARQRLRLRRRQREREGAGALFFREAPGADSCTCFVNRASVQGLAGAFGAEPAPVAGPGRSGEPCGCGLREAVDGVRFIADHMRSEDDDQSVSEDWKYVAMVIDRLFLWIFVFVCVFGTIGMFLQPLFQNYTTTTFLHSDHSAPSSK
Protocol: In this example, the effects of DHM on transfected α4β2-nAChRs in human SH-EP1 cells (a model system to study human acetylcholine (“ACh”) receptors) were measured. Traces of ACh-induced whole-cell currents co-applied with different concentrations of DHM were created and examined.

[2] = tested on: VTA DA neurons; experiment: VTA dopamine neuronal firing in VTA slices (cell-attached recording); format: cell-based, mouse
Protocol: In this example, the effects of DHM on mouse ventral tegmental area (“VTA”) dopamine (“DPA”) neuronal firing in slices were measured.

[3] = tested on: VTA DA neurons; experiment: VTA DA neuronal firing in anesthetized mice (in vivo recording); settings: i.v.
From the text: Part C is after in vivo recording. The recording site was dyed using blue-sky dye, and confirmed by cutting brain sections that contained VTA.

[4] = tested on: NIC-induced conditioned-place preference; experiment: NIC-induced conditioned-place preference (CPP); format: in vivo
Protocol: In this example, the effects of DHM on NIC-induced conditioned-place preference (“CCP”) were measured.
Part A is the CPP performance protocol.

[5] = tested on: C57BL/J mice; experiment: NIC-induced behavioral sensitization (local motor activity); format: in vivo
Protocol: In this example, the effects of DHM on NIC-induced behavioral sensitization in mice were measured.
C57BL/J mice were repetitively treated with NIC (0.5 mg/kg, i.p.), and the local motor activities were measured.

[6] = NIC 0.5 mg/kg, anesthetized mice (FIG. 3 B)
[7] = NIC 0.5 mg/kg, i.p., repetitive, C57BL/J mice (FIG. 6)

Structure (SMILES) | a4b2-nAChR-mediated whole-cell currents [1] | NIC-induced enhancement of AP firing rate, effect of DHM ([2]; VTA slices (FIG. 2 C, D)) | DA neuron firing rate, effect of DHM itself ([2]; VTA slices, different concentrations of DHM (FIG. 2 D)) | DA neuronal firing rate, effect of DHM ([3]; DHM 1 and 10 mg/kg, anesthetized mice (FIG. 4)) | NIC-induced AP firing increase, effect of DHM ([3]; DHM 1 and 10 mg/kg, anesthetized mice (FIG. 4 D)) | NIC-induced CPP, overall ([4]; FIG. 5) | NIC-induced CPP after withdrawal 5 days of NIC (day 19) ([4]; FIG. 5 B, C) | NIC-induced CPP at test day (day 13) ([4]; FIG. 5 C) | NIC-induced behavioral sensitization (local motor activity), effect of DHM ([5]; NIC group vs NIC+DHM group (FIG. 7)) | AP firing rate of DA neurons, effect of bath-applied nicotine ([2]; VTA slices, cell-attached recording (FIG. 2 A, B)) | DA neuronal firing, time-frequency relationship after NIC ([3]; NIC 0.5 mg/kg, anesthetized mice (FIG. 3 A)) | AP firing rate after systemic injection of NIC [3, 6] | bursting firing after systemic injection of NIC [3, 6] | slow oscillations (SO) after systemic injection of NIC [3, 6] | motor activity (total move distance) with repetitive injections of NIC [5, 7] | motor activity after withdrawal at 5 and 10 days [5, 7]
O=C1c2c(O)cc(O)cc2O[C@H](c2cc(O)c(O)c(O)c2)[C@H]1O [DHM, dihydromyricetin] | inhibited | abolished; also recorded: prevented | reduced DA firing | reduced | abolished | significantly reduces; also recorded: inhibits | abolished | abolished | significantly reduced; also recorded: inhibits | – | – | – | – | – | – | –
CN1CCCC1c1cccnc1 (stereo not shown) [NIC, nicotine] | – | – | – | – | – | – | – | – | – | enhancement of AP firing rate | an initial reduction following by a long-lasting increase | enhanced | enhanced | reduction | increased | still maintained at a high level
